From paper PMC12692861, “Biotin-Linked Ursolic Acid Conjugates as Selective Anticancer Agents and Target-Identification Tools for Cancer Therapy” (Molecules, 2025)

Assays:
Assay in all cases: Streptavidin pulldown proteomics (LC-MS/MS), MB49 cells
Type in all cases: binding, murine
Details in all cases: MB-49, 50 µM
[1] = system: Coiled-coil domain-containing protein
Description: (§1) We used proteomics to identify potential molecular targets of 5c. A pulldown assay with streptavidin-agarose-coated magnetic beads was performed. Briefly, 5637 and MB49 cells were incubated with 50 µM 5c for 10 min and 1 h. After incubation, the cells were rinsed three times with cold phosphate-buffered saline (PBS), and cell lysates were prepared and clarified by centrifugation to remove cellular debris, including nuclei. The clarified lysates were incubated with streptavidin-coated magnetic beads to selectively bind biotinylated contents. Bound proteins were separated from unbound proteins through thorough bead washing. Proteins attached to the beads were eluted and analyzed on an Orbitrap Fusion Tribrid mass spectrometer (Thermo Scientific, New York, NY, USA) coupled with an Ultimate 3000 nano-UPLC system. Samples were trapped on a PepMap100 C18 trap column (5 µm, 0.3 × 5 mm) and separated on a PepMap RSLC C18 column (2 µm, 75 µm × 150 mm) using a gradient from 2 to 40% acetonitrile with 0.1% formic acid over 120 min at […] and 40 °C. MS data were acquired in positive mode using data-dependent acquisition (DDA), with precursor scans at 120,000 FWHM (400–2000 m/z), and MS/MS scans in top-speed mode (3 s cycle) using HCD fragmentation (NCE 32%). Proteins were identified and quantified based on peptide spectral matches (PSMs), and fold enrichment compared to controls was calculated to evaluate interaction strength.
(§2) The 5637 and MB49 cells were cultured and treated with higher concentrations of 5c (50 µM) for short period of times (10 min & 60 min) followed by whole cell lysis (WCL) preparation of both treated and untreated cells using modified RIPA buffer [NaCl (100mM), TrisCl (20mM, pH 7.4), EDTA (10 mM), TritonX-100 (0.5%), Glycerol (5%), Protease inhibitor cocktail (1x)] with gentle continuous rotation. The protein content of each WCL was estimated using Pierce™ BCA Protein Assay kit (Thermo-Scientific # 23225). The 100 µL of resuspended Dynabeads™ MyOne™ Streptavidin C1 (Invitrogen # 65001) were washed with PBST (PBS with 0.01% Tween™20) in a magnet stand as recommended in the manufacturer’s instructions. The washed beads were incubated with 200 µg of each WCL in separate tubes at room temperature for 2 h in a gentle end-over-end mixing. After incubation, beads were washed 3–5 times with PBST (0.01% Tween-20) on a magnetic stand and beads were decanted by after spinning and magnetization. The samples were stored at −80 °C till further analysis using LC-MS/MS by the Proteomics and Mass Spectrometry Core Laboratory of Augusta University.

[2] = target: Elongation factor 2 (eEF2) (Mus musculus, UniProt P58252)
Description: as §1, §2

[3] = target: Ras GTPase-activating-like protein IQGAP1 (Mus musculus, UniProt Q9JKF1)
Description: as §1, §2

[4] = target: Elongation factor 1-beta (EF1β) (Mus musculus, UniProt O70251)
Description: as §1, §2

[5] = target: Elongation factor 1-gamma (EF1γ) (Mus musculus, UniProt Q9D8N0)
Description: as §1, §2

[6] = target: Ribosomal L1 domain-containing protein 1 (RSL1D1) (Mus musculus, UniProt Q8BVY0)
Description: as §1, §2

ATP synthase subunit O = ATP synthase subunit O (Mus musculus, UniProt Q9DB20)
Description: as §1, §2

DNA topoisomerase = system: DNA topoisomerase
Description: as §1, §2

[7] = target: Histone H2A type 2-C (HIST2H2AC) (Mus musculus, UniProt Q64523)
Description: as §1, §2

[8] = target: D-3-phosphoglycerate dehydrogenase (Mus musculus, UniProt Q61753)
Description: as §1, §2

[9] = target: ATP synthase subunit beta (Mus musculus, UniProt P56480)
Description: as §1, §2

[10] = target: Eukaryotic translation initiation factor 5B (eIF5B) (Mus musculus, UniProt Q05D44)
Description: as §1, §2

[11] = system: Splicing factor U2AF 65 kDa subunit (U2AF65)
Description: as §1, §2

Sequence of Elongation factor 1-beta (EF1β) (O70251 whole entry): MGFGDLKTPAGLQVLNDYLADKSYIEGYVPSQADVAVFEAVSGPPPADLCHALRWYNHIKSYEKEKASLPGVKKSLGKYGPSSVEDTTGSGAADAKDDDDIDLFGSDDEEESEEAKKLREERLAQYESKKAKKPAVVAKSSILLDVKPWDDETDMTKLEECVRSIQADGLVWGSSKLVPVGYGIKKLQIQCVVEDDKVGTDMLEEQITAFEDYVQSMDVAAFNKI
Sequence of ATP synthase subunit beta (P56480 47-529): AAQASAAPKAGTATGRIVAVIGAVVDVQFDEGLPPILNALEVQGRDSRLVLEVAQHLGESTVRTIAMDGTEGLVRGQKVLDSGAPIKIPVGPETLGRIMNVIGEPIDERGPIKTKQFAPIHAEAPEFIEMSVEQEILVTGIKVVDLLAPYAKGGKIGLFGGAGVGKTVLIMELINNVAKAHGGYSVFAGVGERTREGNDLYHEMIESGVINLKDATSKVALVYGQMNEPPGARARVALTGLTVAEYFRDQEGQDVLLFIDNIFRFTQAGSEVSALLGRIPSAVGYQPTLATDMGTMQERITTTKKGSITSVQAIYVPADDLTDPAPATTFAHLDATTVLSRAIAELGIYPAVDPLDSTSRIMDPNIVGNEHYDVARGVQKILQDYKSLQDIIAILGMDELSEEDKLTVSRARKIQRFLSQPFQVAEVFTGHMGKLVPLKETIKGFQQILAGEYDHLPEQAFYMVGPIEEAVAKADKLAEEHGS
Sequence of ATP synthase subunit beta (Q03265 44-553 partner): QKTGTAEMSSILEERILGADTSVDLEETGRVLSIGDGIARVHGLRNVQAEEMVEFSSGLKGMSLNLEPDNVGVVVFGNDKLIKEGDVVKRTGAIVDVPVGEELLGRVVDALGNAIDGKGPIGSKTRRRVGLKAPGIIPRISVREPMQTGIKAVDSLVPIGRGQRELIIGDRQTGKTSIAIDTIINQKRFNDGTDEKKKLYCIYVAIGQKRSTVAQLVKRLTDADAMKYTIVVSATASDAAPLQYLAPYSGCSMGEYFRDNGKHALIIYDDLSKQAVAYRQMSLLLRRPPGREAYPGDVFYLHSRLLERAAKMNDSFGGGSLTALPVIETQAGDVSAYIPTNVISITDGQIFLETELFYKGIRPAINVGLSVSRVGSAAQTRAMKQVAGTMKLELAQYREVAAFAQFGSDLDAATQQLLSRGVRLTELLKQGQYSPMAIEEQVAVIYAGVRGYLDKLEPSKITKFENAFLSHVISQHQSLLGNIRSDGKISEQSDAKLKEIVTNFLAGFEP
Sequence of ATP synthase subunit beta (Q91VR2 26-298 partner): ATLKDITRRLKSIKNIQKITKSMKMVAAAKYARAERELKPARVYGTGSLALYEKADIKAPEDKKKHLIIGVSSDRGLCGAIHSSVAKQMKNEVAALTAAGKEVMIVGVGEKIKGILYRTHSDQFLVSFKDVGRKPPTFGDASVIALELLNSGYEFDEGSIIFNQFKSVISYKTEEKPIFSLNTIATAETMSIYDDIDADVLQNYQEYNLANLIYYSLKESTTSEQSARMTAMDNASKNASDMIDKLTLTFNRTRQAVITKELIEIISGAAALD
Sequence of Eukaryotic translation initiation factor 5B (eIF5B) (Q05D44 whole entry): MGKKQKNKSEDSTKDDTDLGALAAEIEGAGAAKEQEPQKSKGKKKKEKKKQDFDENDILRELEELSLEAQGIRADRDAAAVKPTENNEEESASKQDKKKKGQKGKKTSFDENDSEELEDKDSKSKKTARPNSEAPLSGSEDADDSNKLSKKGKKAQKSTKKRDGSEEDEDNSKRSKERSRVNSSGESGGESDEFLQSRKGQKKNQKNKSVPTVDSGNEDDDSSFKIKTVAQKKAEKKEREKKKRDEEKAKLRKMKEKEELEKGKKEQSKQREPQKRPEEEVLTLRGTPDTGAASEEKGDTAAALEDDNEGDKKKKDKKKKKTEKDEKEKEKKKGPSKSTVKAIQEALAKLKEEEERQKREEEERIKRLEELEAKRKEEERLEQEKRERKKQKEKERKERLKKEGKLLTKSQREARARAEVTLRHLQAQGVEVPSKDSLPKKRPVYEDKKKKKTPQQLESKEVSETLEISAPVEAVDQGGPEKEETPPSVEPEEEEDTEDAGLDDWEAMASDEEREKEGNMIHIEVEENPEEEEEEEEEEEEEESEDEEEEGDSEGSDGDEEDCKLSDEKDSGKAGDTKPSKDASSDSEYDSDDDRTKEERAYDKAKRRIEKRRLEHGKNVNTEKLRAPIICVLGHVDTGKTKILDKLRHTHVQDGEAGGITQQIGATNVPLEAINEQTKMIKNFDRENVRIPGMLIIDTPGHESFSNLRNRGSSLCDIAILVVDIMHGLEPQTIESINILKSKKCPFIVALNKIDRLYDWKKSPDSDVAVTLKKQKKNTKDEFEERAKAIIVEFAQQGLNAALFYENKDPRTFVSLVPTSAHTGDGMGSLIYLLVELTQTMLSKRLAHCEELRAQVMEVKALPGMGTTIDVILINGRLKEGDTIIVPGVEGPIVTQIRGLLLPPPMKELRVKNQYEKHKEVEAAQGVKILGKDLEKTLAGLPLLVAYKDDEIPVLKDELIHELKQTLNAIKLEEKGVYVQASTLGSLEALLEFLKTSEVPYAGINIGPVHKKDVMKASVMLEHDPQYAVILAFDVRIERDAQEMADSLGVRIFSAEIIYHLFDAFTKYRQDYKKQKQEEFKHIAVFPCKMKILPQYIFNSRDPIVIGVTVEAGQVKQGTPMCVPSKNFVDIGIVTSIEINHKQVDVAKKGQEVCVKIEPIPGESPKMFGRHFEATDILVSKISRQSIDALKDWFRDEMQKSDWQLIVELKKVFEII
Sequence of Ras GTPase-activating-like protein IQGAP1 (Q9JKF1 whole entry): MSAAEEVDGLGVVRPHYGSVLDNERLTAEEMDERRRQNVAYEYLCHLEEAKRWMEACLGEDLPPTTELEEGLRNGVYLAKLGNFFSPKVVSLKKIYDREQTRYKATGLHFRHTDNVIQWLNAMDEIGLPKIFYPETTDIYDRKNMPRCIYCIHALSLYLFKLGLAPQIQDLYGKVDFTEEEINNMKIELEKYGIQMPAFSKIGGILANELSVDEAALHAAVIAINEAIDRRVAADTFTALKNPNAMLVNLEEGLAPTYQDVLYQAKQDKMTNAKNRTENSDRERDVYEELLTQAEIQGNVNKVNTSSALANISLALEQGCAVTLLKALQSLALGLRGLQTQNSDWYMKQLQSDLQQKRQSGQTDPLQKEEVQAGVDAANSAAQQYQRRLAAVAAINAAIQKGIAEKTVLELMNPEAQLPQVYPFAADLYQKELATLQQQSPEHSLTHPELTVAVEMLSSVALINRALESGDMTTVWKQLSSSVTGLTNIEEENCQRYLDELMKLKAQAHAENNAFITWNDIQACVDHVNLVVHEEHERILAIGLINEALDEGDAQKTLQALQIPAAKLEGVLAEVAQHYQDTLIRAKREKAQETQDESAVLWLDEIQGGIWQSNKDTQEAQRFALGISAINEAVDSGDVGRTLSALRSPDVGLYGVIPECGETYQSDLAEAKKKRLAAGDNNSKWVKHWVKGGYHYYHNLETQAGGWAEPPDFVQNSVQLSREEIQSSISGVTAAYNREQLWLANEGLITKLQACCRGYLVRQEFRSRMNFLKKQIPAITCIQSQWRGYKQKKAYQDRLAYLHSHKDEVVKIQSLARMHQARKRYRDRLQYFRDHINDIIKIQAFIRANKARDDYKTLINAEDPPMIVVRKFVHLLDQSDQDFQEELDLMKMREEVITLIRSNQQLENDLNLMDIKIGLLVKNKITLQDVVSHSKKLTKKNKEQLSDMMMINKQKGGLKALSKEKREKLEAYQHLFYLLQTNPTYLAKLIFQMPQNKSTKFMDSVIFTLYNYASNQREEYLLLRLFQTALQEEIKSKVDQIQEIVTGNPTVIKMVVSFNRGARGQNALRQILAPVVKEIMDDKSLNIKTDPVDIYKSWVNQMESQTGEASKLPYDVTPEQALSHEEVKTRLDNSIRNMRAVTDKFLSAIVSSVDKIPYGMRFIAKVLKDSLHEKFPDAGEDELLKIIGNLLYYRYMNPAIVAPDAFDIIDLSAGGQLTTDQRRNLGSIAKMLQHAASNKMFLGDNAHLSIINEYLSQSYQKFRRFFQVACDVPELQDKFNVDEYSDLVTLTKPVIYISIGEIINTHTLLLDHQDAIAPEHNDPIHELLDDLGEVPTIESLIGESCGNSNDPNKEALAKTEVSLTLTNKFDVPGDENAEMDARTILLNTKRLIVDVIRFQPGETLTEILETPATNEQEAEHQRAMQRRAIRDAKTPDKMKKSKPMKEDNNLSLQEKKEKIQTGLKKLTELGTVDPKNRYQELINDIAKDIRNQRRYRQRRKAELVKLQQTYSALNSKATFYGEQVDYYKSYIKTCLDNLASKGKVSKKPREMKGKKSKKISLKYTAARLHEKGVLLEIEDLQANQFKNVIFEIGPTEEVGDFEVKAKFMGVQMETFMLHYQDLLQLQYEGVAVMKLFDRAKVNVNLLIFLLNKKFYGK
Sequence of Ribosomal L1 domain-containing protein 1 (RSL1D1) (Q8BVY0 whole entry, the tested form may be a part): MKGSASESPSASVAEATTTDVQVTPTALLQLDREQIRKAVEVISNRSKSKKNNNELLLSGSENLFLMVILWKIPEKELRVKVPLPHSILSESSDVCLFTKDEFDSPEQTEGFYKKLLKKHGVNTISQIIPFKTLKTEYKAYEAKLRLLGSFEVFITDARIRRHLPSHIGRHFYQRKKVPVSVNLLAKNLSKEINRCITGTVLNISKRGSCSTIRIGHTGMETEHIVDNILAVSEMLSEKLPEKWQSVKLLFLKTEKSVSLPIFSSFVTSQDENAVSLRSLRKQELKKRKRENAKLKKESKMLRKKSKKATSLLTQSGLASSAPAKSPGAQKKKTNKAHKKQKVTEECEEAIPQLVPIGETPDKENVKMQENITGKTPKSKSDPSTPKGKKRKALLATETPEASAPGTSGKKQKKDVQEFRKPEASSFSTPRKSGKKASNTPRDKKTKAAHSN
Sequence of ATP synthase subunit O (Q9DB20 24-213): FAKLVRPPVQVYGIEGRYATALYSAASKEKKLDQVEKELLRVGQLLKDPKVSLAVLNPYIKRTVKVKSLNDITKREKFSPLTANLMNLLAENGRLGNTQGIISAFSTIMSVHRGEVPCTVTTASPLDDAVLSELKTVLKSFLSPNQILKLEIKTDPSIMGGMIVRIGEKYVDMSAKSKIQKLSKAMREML

## CC1CCC2(C(=O)OCCCCOC(=O)CCCCC3SCC4NC(=O)NC43)CCC3(C)C(=CCC4C5(C)CCC(O)C(C)(C)C5CCC43C)C2C1C [Compound 5c, 4-((5-((3aS,4S,6aR)-2-Oxohexahydro-1H-thieno [3,4-d]imidazol-4-yl)pentanoyl)oxy) butyl 3-hydroxy-urs-12-en-28-oate]
[1]
  Fold Change 10 min/Ctrl: 0
  Fold Change 1 h/Ctrl: 0
[2]
  Fold Change 10 min/Ctrl: 3
  Fold Change 1 h/Ctrl: 2
[3]
  Fold Change 10 min/Ctrl: 1
  Fold Change 1 h/Ctrl: 3
[4]
  Fold Change 10 min/Ctrl: 5
  Fold Change 1 h/Ctrl: 5
[5]
  Fold Change 1 h/Ctrl: 1
[6]
  Fold Change 10 min/Ctrl: 1.33
  Fold Change 1 h/Ctrl: 1.56
ATP synthase subunit O
  Fold Change 10 min/Ctrl: 4
  Fold Change 1 h/Ctrl: 5
DNA topoisomerase
  Fold Change 10 min/Ctrl: 1
  Fold Change 1 h/Ctrl: 1.75
[7]
  Fold Change 10 min/Ctrl: 1.58
  Fold Change 1 h/Ctrl: 1.27
[8]
  Fold Change 10 min/Ctrl: 0.8
  Fold Change 1 h/Ctrl: 1.6
[9]
  Fold Change 10 min/Ctrl: 1.31
  Fold Change 1 h/Ctrl: 1.82
[10]
  Fold Change 10 min/Ctrl: 3
  Fold Change 1 h/Ctrl: 2.75
[11]
  Fold Change 10 min/Ctrl: 4
  Fold Change 1 h/Ctrl: 3
